Data on 14 compounds can be found in ChEMBL document CHEMBL1135807, “2,5'-Disubstituted adenosine derivatives: evaluation of selectivity and efficacy for the adenosine A(1), A(2A), and A(3) receptor” (J Med Chem, 2002).

SMILES strings stand for the structures. pEC50, pKi: −log10 of the molar value.

The target in assay [1] is Adenosine receptor A2a (Homo sapiens, UniProt P29274). In words: G-protein activation in human Adenosine A2A receptor expressed in CHO cells using cAMP assay. The assay is classed as functional, cell-based. (Changes in cAMP serve as a functional read-out for many G protein-coupled receptors.)
Adenosine receptor A2a (Homo sapiens, UniProt P29274), sequence (P29274 whole entry): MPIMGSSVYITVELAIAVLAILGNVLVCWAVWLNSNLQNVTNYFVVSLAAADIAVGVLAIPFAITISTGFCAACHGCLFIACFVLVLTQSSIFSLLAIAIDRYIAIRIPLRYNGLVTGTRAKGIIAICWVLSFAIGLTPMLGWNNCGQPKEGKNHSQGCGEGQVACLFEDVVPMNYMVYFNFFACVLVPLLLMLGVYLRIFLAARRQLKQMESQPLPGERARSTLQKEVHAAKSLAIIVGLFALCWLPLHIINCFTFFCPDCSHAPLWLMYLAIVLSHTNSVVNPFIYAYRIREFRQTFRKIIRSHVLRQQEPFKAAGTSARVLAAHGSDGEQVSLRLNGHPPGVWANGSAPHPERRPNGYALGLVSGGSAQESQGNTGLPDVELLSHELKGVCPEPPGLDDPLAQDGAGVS
In assay [2] the target is T1, Adenosine receptor A1 (Rattus norvegicus, UniProt P25099).
T1 sequence (P25099 whole entry): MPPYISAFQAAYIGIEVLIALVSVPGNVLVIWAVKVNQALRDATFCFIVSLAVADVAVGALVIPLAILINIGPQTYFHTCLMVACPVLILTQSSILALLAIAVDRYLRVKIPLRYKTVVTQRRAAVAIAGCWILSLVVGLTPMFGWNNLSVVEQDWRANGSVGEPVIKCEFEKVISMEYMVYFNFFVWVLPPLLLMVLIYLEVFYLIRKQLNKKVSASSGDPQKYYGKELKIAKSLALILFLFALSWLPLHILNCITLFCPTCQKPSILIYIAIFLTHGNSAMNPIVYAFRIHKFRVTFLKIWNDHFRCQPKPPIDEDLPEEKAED
In words: Ability to displace [3H]DPCPX from Adenosine A1 receptor in rat cortical membrane. The assay is classed as cell membranes.

For assay [3], the target named is Adenosine receptor A2a (Rattus norvegicus, UniProt P30543).
Adenosine receptor A2a (Rattus norvegicus, UniProt P30543), sequence (P30543 whole entry): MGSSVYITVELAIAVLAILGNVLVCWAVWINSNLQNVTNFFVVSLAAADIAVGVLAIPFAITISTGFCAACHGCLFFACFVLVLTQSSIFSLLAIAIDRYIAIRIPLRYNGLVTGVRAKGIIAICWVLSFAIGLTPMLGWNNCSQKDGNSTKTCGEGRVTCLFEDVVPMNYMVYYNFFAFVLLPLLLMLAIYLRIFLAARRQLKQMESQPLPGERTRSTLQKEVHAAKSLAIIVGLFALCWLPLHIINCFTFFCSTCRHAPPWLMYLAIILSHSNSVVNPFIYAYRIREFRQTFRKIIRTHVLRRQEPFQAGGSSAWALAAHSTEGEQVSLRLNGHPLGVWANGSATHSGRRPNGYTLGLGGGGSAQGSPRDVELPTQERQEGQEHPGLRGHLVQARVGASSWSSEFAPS
Description: Binding affinity at Adenosine A2A receptor in rat striatal membrane by [3H]ZM-241385 displacement.
The target of assay [4] is T2, Adenosine receptor A1 (Rattus norvegicus) (UniProt P25099).
T2 sequence (whole entry): T1 sequence (P25099 whole entry)
The assay can be described thus: Ability to displace [3H]DPCPX from Adenosine A1 receptor in rat cortical membrane at 10e-5 M. Format: cell membranes.

For assay [5], the target named is T3, Adenosine receptor A3 (Homo sapiens, UniProt P0DMS8).
T3 sequence (P0DMS8 whole entry): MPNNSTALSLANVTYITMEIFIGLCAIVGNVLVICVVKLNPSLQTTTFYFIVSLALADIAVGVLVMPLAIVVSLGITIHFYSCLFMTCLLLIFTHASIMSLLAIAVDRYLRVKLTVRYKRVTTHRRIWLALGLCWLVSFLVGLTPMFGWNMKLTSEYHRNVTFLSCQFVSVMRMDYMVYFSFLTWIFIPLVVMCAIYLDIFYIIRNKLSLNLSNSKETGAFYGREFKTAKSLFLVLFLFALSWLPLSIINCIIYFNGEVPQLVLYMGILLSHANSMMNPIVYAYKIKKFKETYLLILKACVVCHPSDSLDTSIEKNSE
In words: biochemical.
Description: Binding affinity at human Adenosine A3 receptor expressed in HEK 293 cells by [125I]-AB MECA displacement.

The target in assay [6] is T2, Adenosine receptor A1 (Rattus norvegicus). In words: Displacement of [3H]DPCPX from Adenosine A1 receptor in rat cortical membrane at 10e-5 M. The assay is classed as cell membranes. On the technique in general: In a radioligand displacement assay an active substance lowers the binding of a labelled ligand.
In assay [7] the target is T4, Adenosine receptor A3 (Homo sapiens) (UniProt P0DMS8).
T4 sequence (whole entry): T3 sequence (P0DMS8 whole entry)
In words: Percent inhibition of forskolin induced (10 uM) cAMP production compared to C1-IB-MECA through Adenosine A3 receptor expressed in CHO cells at 100 uM. The assay is classed as functional, cell-based.

Assay [8] has as its target T4, Adenosine receptor A3 (Homo sapiens). The assay can be described thus: % inhibition of forskolin induced (10 uM) cAMP production compared to C1-IB-MECA through Adenosine A3 receptor expressed in CHO cells at 30 uM. The assay is classed as functional, cell-based.

For the compound `CCCCC#Cc1nc(N)c2ncn([C@@H]3O[C@H](CSCC)[C@@H](O)[C@H]3O)c2n1`, in assay [1], the negative-log EC50 (pEC50) (commonly the EC50 on a negative log10 scale, so that one unit is a factor of ten) is 6.30. Further, the pKi (in general, the negative decadic logarithm of the Ki, by convention in mol/L) in assay [2] is 5.66; in assay [3], 6.96.
In assay [4], `CC(C)C/C=N/Nc1nc(N)c2ncn([C@@H]3O[C@H](CO)[C@@H](O)[C@H]3O)c2n1` yielded a Displacement of 18.9%. Moreover, the pEC50 in assay [1] was 5.96. Besides, the negative-log Ki (pKi) was 7.70 in assay [3] and 7.42 in assay [5].
`CCCCC#Cc1nc(N)c2ncn([C@@H]3O[C@H](CSCCC)[C@@H](O)[C@H]3O)c2n1` had a Displacement in assay [6] of 46.5%. The same compound showed a negative logarithm of the EC50 (pEC50) in assay [1] of 6.10. In assay [3], this compound had a pKi of 6.77.
On to `CC(C)SC[C@H]1O[C@@H](n2cnc3c(N)nc(I)nc32)[C@H](O)[C@@H]1O`, for which, in assay [4], the Displacement was determined as 56.2%. In assay [3], this compound showed a negative-log Ki (pKi) of 6.09.
In turn, `CCCCC#Cc1nc(N)c2ncn([C@@H]3O[C@H](CSC)[C@@H](O)[C@H]3O)c2n1` gave a pEC50 in assay [1] of 6.15. The same compound had a pKi in assay [3] of 7.22.
For the compound `CCCSC[C@H]1O[C@@H](n2cnc3c(N)nc(N/N=C/CC(C)C)nc32)[C@H](O)[C@@H]1O`, in assay [4], the Displacement was 22%. In addition, the negative logarithm of the EC50 (pEC50) in assay [1] is 4.89. In addition, the maximal effect (Emax) (in general, the greatest response seen or fitted, relative to the assay's reference) in assay [7] is 16%. In addition, the pKi was 5.82 in assay [3] and 6.16 in assay [5].
In assay [4], `Nc1nc(I)nc2c1ncn2[C@@H]1O[C@H](CO)[C@@H](O)[C@H]1O` yielded a Displacement of 36.1%.
For the compound `CSC[C@H]1O[C@@H](n2cnc3c(N)nc(N/N=C/CC(C)C)nc32)[C@H](O)[C@@H]1O`, in assay [4], the Displacement amounted to 18.9%. In addition, the pEC50 in assay [1] is 5.30. In assay [8], this compound came in with an Emax of 41%. In addition, the negative-log Ki (pKi) was 6.66 in assay [3] and 6.60 in assay [5].
For `CCSC[C@H]1O[C@@H](n2cnc3c(N)nc(N/N=C/CC(C)C)nc32)[C@H](O)[C@@H]1O`, the Displacement in assay [4] was 21.2%. The compound also gave a negative-log EC50 (pEC50) in assay [1] of 5.12. Moreover, the Emax in assay [7] worked out at 7%. In addition, the results for the negative logarithm of the Ki (pKi) in assay [3] and in assay [5] were 6.30 and 6.09, respectively.
Regarding `CCSC[C@H]1O[C@@H](n2cnc3c(N)nc(I)nc32)[C@H](O)[C@@H]1O`, the negative logarithm of the Ki (pKi) was 6.41 in assay [2] and 5.92 in assay [3].
With `CSC[C@H]1O[C@@H](n2cnc3c(N)nc(I)nc32)[C@H](O)[C@@H]1O`, the pKi in assay [3] is 5.41.
`CC(C)C/C=N/Nc1nc(N)c2ncn([C@@H]3O[C@H](CSC(C)C)[C@@H](O)[C@H]3O)c2n1`: the Displacement in assay [6] amounted to 13%. Besides, the pEC50 in assay [1] is 4.98. The Emax in assay [8] was determined as 26%. The pKi in assay [3] is 5.74; in assay [5] it was 6.39.
`CCCSC[C@H]1O[C@@H](n2cnc3c(N)nc(I)nc32)[C@H](O)[C@@H]1O`: the negative-log Ki (pKi) in assay [2] is 5.98; in assay [3] it was 6.36.
`CCCCC#Cc1nc(N)c2ncn([C@@H]3O[C@H](CSC(C)C)[C@@H](O)[C@H]3O)c2n1` showed a pEC50 in assay [1] of 5.44. The pKi in assay [2] is 5.90; in assay [3] it was 6.66.
